Tested on: monocotyledonous and dicotyledonous weeds
Test: Greenhouse post-emergence herbicidal test, effect rated visually against untreated controls
Type: in vivo
Description: Seeds or rhizome pieces of monocotyledonous and dicotyledonous weeds were placed in sandy loam soil in plastic pots, covered with soil and grown in a greenhouse under good growth conditions. Three weeks after seeding, the test plants were treated in the three-leaf stage. The compositions of the invention, formulated as wettable powders or as emulsion concentrates, were sprayed onto the green parts of the plants at various application rates of 600-800 l of water/ha (converted). The test plants were allowed to stand in the greenhouse under optimum growth conditions for about 3 to 4 weeks, and the effect of the preparations was then rated visually in comparison to untreated controls. The compositions according to the invention have good herbicidal activity against harmful plants of economic importance.

SMILES	herbicidal activity compared with a commercial formulation of bromoxynil-octanoate (300 and 600 g of AS/ha as microcapsule suspension (10%, Formulation Example 2), applied with a surfactant such as Genapol X 150, Genapol X 200, Sapogenat T130, T 200, T 300, T 400, T 500 or Genapol O 200 at 150, 300 and 600 g of surfactant/ha)	herbicidal activity compared with bromoxynil-Na applied with a surfactant having a lower content of ethylene oxide units (Genapol® 060, 6 ethylene oxide units) (bromoxynil-Na 300 g/ha in combination with a surfactant such as Genapol X 150, Genapol X 200, Sapogenat T130, T 200, T 300, T 400, T 500 or Genapol O 200 at 50, 100, 300 and 60 g/ha, post-emergence, three-leaf stage, rated after about 3 to 4 weeks)
CCCCCCCC(=O)Oc1c(Br)cc(C#N)cc1Br [Bromoxynil-octanoate, bromoxynil-octanoate]	considerably higher	–
N#Cc1cc(Br)c([O-])c(Br)c1.[Na+] [bromoxynil-Na, bromoxynil-sodium]	–	considerably higher

Reference: patent US6693063B2, “Herbicidal composition” (Aventis CropScience GmbH, priority 2000, dated 2004)
